Consider 26 compounds from US20220280530A1, “PREVENTION OR TREATMENT OF DISEASES AND DISORDERS ASSOCIATED WITH TISSUE DAMAGE” (priority 2019, published 2022).

One assay addresses MST1 (Homo sapiens, UniProt Q13043). Put plainly: MST1 protein kinase inhibition (Table 5). The format is biochemical.
Another assay deals with T1, MST2 (Homo sapiens, UniProt Q13188).
T1 sequence (Q13188 1-491): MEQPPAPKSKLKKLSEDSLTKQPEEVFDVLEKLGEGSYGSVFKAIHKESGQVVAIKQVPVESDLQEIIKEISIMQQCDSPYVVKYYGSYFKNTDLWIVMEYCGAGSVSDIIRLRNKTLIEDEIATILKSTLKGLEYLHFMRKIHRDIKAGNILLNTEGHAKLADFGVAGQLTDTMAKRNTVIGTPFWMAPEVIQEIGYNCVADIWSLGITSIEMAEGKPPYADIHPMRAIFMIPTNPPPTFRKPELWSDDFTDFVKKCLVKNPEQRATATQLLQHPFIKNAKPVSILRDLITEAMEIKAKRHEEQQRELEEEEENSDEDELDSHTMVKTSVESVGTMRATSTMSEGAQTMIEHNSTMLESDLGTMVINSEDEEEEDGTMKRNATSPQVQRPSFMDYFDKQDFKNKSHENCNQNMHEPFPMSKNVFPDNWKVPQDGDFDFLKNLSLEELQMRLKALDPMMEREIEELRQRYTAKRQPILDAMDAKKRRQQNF
Put plainly: MST2 protein kinase inhibition (Table 5). Format: biochemical.

The subject of the next assay is mice treated with DOX. Put plainly: In vivo cardio protection: heart function and atrophy induced by DOX in mice. Conditions: by week four, inhibitors daily i.p., FIG. 11. The protocol:
In vivo cardio protection in mice by the inhibitors of MST1/2 protein kinases was verified by measuring heart function and atrophy induced by DOX (FIG. 8). Two inhibitors X1 (drug 1) and Y1 (drug 2) were administered to the mice daily by i.p. during the entire study period. After administration of the inhibitors for six days, DOX was administered every two days by i.p. for four times. Blood samples were collected periodically from the mice by […]. EdU was administered to the mice during the final four days of the study (FIG. 8).
Further, the mice were disected at the death or at the end of the study and the weight of the hearts was measured.
The heart function measured as EF % (ejection fraction) was impaired by DOX over the four-week study period.

Assay [1] has as its system C57B1/6 mice, MCAO-induced cerebral ischemia. Put plainly: Mouse cerebral ischemia model by transient middle cerebral artery occlusion (MCAO). Format: in vivo. Here is the method: To verify the protective effect of the inhibitors of MST1/2 protein kinases on the brain injury after ischemic stroke, X1 was administered to mouse cerebral ischemia model induced by transient middle cerebral artery occlusion (MCAO). Briefly, 8-12 week-old C57B1/6 mice (both male and female mice) were intraperitoneal injection with vehicle (DMSO) or 2 mg/kg X1 twice at 24 hours and 3 hours prior to MCAO procedure respectively. Mice were then anesthetized with 2.0% isoflurane, with their body temperature maintained at 37° C. with a heating pad. Following a midline cervical skin incision, the proximal right common carotid artery and the right external carotid artery were ligated. […]
Real-time cerebral blood flow was monitored using a laser speckle contrast imager (PeriCam PSI HR System, Perimed, Sweden) to confirm occlusion of the MCAO and reperfusion after removal of the filament. […] Brain sections were stained with 2% 2,3,5-Triphenyltetrazolium chloride (T8877; Sigma-Aldrich, St. Louis, Mo.) and scanned (HP Scanjet G4010) to allow quantification of infarcted and uninjured brain tissue. […]
In addition, neurological function of the MCAO-induced cerebral ischemia model mice was evaluated after treatment with the MST1/2 protein kinases inhibitor X1. […]

The subject of another assay is VCAM-1. Put plainly: VCAM-1 expression in stimulated HUVECs (western blot). Format: cell-based, human. The following applies: for IC50: Homo sapiens, HUVEC, read-out: IC50 of inhibition of VCAM-1 expression. For orientation: A western blot detects proteins with antibodies after separation by electrophoresis.
In a further assay the test system is ICAM-1. Put plainly: ICAM-1 expression in stimulated HUVECs (western blot). The format is cell-based, human. The following applies: 1 μM, 1 hour pretreatment, TNF-α (20 ng/mL) and IL-1β (10 ng/mL) 12 hours; FIG. 15A.
In assay [2] the test system is inflammatory cytokines in HUVEC, such as MCP-1 and IL-6. Put plainly: mRNA levels of inflammatory cytokines in HUVEC after TNFα stimulation (qPCR). The format is cell-based, human. The following applies: in response to TNFα stimulation, FIGS. 17A-17D, 18A-18D. In general terms: In qPCR the cycle at which signal appears reflects the starting amount.
In assay [3] the test system is THP-1 cells / TNFα-activated ECs. Put plainly: Adhesion of THP-1 cells to TNFα-activated endothelial cells. Format: cell-based, human. Conditions: FIGS. 19A-19B, 20A-20B. Here is the method:
To substantiate the functional significance of inhibitors of MST1/2 protein kinases in activating endothelial cells, the monocyte adhesion to the activated endothelial cells was further examined.
Cell adhesion was assessed as the follows: THP1 cells were labeled with calcein-AM (Invitrogen) according to the instructions of the manufacturer. After the HUVECs were stimulated and washed, 2.5×10^5 calcein-labeled THP1 cells were added to each well and allowed to interact with MST1/2 inhibitors for 60 minutes at […]. Unbound cells were removed by gently washing with complete medium, and the number of attached cells was counted on an inverted fluorescent microscope.

Assay [4] concerns inflammatory cytokines in the mouse lung. Put plainly: Murine septic model (LPS): inflammatory cytokine mRNA in mouse lung (real-time PCR). Format: in vivo, mice. Conditions: LPS 2.5 mg/kg i.p.; pretreated twice at 24 hrs and 3 hrs prior; 6 hrs after LPS; FIGS. 21A-21D. The protocol: In this regard, the mice were pretreated with X1 twice at 24 hrs and 3 hrs, respectively, prior to the injection of lipopolysaccharides (LPS). 6 hrs after injection of LPS to induce the sepsis model, the expression of inflammatory cytokines in the mouse lung was determined by real-time PCR.

Where two headings read alike, the source gives them in different places.

Chain of MST1 (Q13043 whole entry, looked up): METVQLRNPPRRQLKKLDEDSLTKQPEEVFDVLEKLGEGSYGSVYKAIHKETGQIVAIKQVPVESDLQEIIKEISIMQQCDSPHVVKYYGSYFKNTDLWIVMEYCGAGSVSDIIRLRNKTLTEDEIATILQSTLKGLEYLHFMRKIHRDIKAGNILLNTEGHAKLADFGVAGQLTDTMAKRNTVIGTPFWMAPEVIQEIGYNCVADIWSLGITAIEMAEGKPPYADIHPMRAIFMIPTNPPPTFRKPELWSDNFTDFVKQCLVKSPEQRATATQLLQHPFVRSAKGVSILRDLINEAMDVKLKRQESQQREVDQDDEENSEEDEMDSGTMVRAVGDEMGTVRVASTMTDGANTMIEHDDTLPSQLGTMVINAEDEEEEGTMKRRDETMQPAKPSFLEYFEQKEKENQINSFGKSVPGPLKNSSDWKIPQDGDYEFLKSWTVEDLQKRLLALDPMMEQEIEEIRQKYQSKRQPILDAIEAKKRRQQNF

One may read the IC50 as the concentration that inhibits the measured activity by half. Take `CN1c2ccccc2C(=O)Nc2cnc(Nc3ccc(NS(C)(=O)=O)cc3)nc21` [IA-6]: the IC50 against MST1 and against MST2 was more than 30 µM in each case.

`NS(=O)(=O)c1ccc(Nc2ncc3c(n2)N(C2CCCC2)c2ccccc2C(=O)N3)cc1` [IB-1]: the half-inhibitory concentration (IC50) at MST1 and against MST2 was more than 30 µM each time.

In the case of `CN1C(=O)c2ccccc2N(C)c2nc(Nc3cccc(S(N)(=O)=O)c3)ncc21` [IC-4], the IC50 against MST1 and against MST2 was more than 30 µM in each case.

As to `CCN1CCN(Cc2ccc(Nc3ncc4c(n3)N(C)c3ccccc3C(=O)N4C)cc2C(F)(F)F)CC1` [IC-5], the IC50 on MST1 (read-out: MST1 IC50) was 1.91 µM; against MST2 it was 1.8 µM.

For the compound `CCN1c2ccccc2C(=O)N(C)c2cnc(Nc3ccc(S(N)(=O)=O)cc3)nc21` [ID-1], the IC50 turned out to be 0.04 µM at MST1 (read-out: MST1 IC50) and 0.11 µM against MST2.

In turn, `CCN1c2ccccc2C(=O)N(C)c2cnc(Nc3cccc(S(N)(=O)=O)c3)nc21` [ID-3] yielded an IC50 at MST2 of more than 30 µM.

As for `CC(C)N1c2ccccc2C(=O)N(C)c2cnc(Nc3ccc(S(N)(=O)=O)cc3)nc21` [IE-1], the IC50 was 0.83 µM at MST1 (read-out: MST1 IC50) and 2.45 µM against MST2.

`CC(C)N1c2ccccc2C(=O)N(C)c2cnc(Nc3cccc(S(N)(=O)=O)c3)nc21` [IE-2] returned an IC50 on MST2 of more than 30 µM.

Take `CN1CCN(S(=O)(=O)c2ccc(Nc3ncc4c(n3)N(C3CCCC3)c3ccccc3C(=O)N4C)cc2)CC1` [IF-4]: the IC50 against MST2 was more than 30 µM.

For the compound `CN1C(=O)c2ccccc2N(C2CCCC2)c2nc(Nc3cccc(S(N)(=O)=O)c3)ncc21` [IF-5], the IC50 on MST1 and against MST2 was more than 30 µM throughout.

`CCN1CCN(Cc2ccc(Nc3ncc4c(n3)N(C3CCCC3)c3ccccc3C(=O)N4C)cc2C(F)(F)F)CC1` [IF-6] came in with an IC50 against MST2 of more than 30 µM.

In the case of `CN1C(=O)c2ccccc2Nc2nc(Nc3cccc(S(N)(=O)=O)c3)ncc21` [IG-3], the IC50 on MST1 and against MST2 was more than 30 µM throughout.

With `Cc1ccc2c(c1)C(=O)N(C)c1cnc(Nc3ccc(S(C)(=O)=O)cc3)nc1N2C` [IH-3], the IC50 against MST1 and on MST2 was more than 30 µM each time.

As to `Cc1ccc2c(c1)C(=O)N(C)c1cnc(Nc3ccc(S(N)(=O)=O)cc3)nc1N2C` [IH-6], the IC50 at MST1 and against MST2 was more than 30 µM throughout.

On MST1, `[2H]c1ccc2c(c1)N(C)c1nc(Nc3ccc(S(N)(=O)=O)cc3)ncc1N(C)C2=O` [IH-7] yielded an IC50 of 3.12 µM.

The compound `CN1C(=O)c2cc(Cl)ccc2N(C)c2nc(Nc3ccc(S(N)(=O)=O)cc3)ncc21` [IH-10] displayed an IC50 on MST2 of more than 30 µM.

For the compound `CN1C(=O)c2ccc(Cl)cc2N(C)c2nc(Nc3ccc(S(C)(=O)=O)cc3)ncc21` [IH-14], the half-maximal inhibitory concentration (IC50) at MST1 was more than 30 µM.

Regarding `CN1C(=O)c2sccc2N(C)c2nc(Nc3cccc(S(N)(=O)=O)c3)ncc21` [II-2], the IC50 on MST2 is more than 30 µM.

With `CN1C(=O)c2sccc2N(C)c2nc(Nc3ccc([N+](=O)[O-])cc3)ncc21` [II-11], the IC50 at MST1 and against MST2 was more than 30 µM in each case.

`CN1C(=O)c2sccc2N(C)c2nc(Nc3ccc(N)cc3)ncc21` [II-14]: the half-inhibitory concentration (IC50) turned out to be 2.16 µM at MST1 (read-out: MST1 IC50) and 2.75 µM against MST2.

In the case of `COc1cc(N2CCN(C)CC2)ccc1Nc1ncc2c(n1)N(C)c1ccsc1C(=O)N2C` [II-16], the IC50 against MST1 and at MST2 was more than 30 µM in each case.

Consider `COc1cc(N2CCC(O)CC2)ccc1Nc1ncc2c(n1)N(C)c1ccsc1C(=O)N2C` [II-22], for which the IC50 against MST1 and against MST2 was more than 30 µM throughout.

As for `CN1C(=O)c2sccc2N(C)c2nc(Nc3cc[nH]n3)ncc21` [II-27], at MST2, the IC50 was more than 30 µM.

Turning to `CN1C(=O)c2cccc3c2N(CC3)c2nc(Nc3cccc(S(N)(=O)=O)c3)ncc21` [IV-2], the IC50 on MST1 and at MST2 was more than 30 µM throughout.

`CN1C(=O)c2sccc2N(C)c2nc(Nc3ccc(S(N)(=O)=O)cc3)ncc21` [X1]: the “heart function measured as EF % (ejection fraction)” value in the assay on mice treated with DOX is recorded as “reduced the EF % decrease”. Besides, the infarct size result in assay [1] (2 mg/kg i.p. twice, 24 hours and 3 hours prior to MCAO, 60 minutes ischemia, 23 hours reperfusion, FIGS. 13, 14A) is “significantly attenuated”. The “neurological function (0-4-point neurological score)” value in [1] (MCAO mice, in comparison with vehicle treatment, FIG. 14B) is given as “reducing the damages to neurological functions”. Further, the VCAM-1 expression entry in the assay with VCAM-1 (1 μM, 1 hour pretreatment, TNF-α (20 ng/mL) and IL-1β (10 ng/mL) 12 hours, FIG. 15A) is “substantially inhibited”. Moreover, in the assay with VCAM-1, the IC50 stood at 1.29 µM. Further, the “expression of ICAM-1” value in the assay with ICAM-1 is “barely affected”. In addition, the “mRNA levels of inflammatory cytokines in HUVEC, such as MCP-1 and IL-6” value in [2] is given as “markedly inhibited”. In addition, the “adhesion of THP-1 cells to TNFα-activated ECs” value in [3] is “markedly inhibited”. Also, in assay [4], the “mRNA level of ICAM-1 in mouse lung” value is “markedly suppressed”, the “mRNA level of IL-6 in mouse lung” value is “markedly suppressed”, the “mRNA level of MCP-1 in mouse lung” value was “markedly suppressed” and the “mRNA level of VCAM-1 in mouse lung” value is recorded as “markedly suppressed”.

Take `CN1C(=O)c2ccccc2N(C)c2nc(Nc3ccc(S(N)(=O)=O)cc3)ncc21` [Y1]: the “heart function measured as EF % (ejection fraction)” value in the assay on mice treated with DOX was “reduced the EF % decrease”. Besides, the IC50 in the assay with VCAM-1 (HUVECs, FIGS. 15B, 16A-16B) is 0.49 µM. The “mRNA levels of inflammatory cytokines in HUVEC, such as MCP-1 and IL-6” value in [2] is “markedly inhibited”. Also, the “adhesion of THP-1 cells to TNFα-activated ECs” value in assay [3] was “markedly inhibited”.
